Test results taken from PubChem BioAssay AID248 (DTP/NCI, 2004).
“And” between values parts separate entries of the source, which are not always exact repeats. Identical values can stand only once. Toxic doses and inconclusive results are not listed. Rule as the data show it: active = T/C of 150% or more; inactive = T/C below 125%.

Tested on: L1210 leukemia ip in BDF1 mice, survival T/C
Test: NCI In Vivo Anticancer Drug Screen. Data for tumor model L1210 Leukemia (intraperitoneal) in B6D2F1 (BDF1) mice
Conditions: endpoint: mean survival time, higher = longer survival
How it was run: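 Read-out is survival time, reported as the treated-group measurement over the vehicle-control measurement.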

[1] = dose: 100.0 mg/kg/injection, schedule: Q01DX001 (ip), vehicle: Klucel (hydroxypropylcellulose) (HPC)
[2] = dose: 200.0 mg/kg/injection, schedule: Q01DX001 (ip), vehicle: Klucel (hydroxypropylcellulose) (HPC)
[3] = dose: 100.0 mg/kg/injection, schedule: Q01DX009 (ip), vehicle: Klucel (hydroxypropylcellulose) (HPC)
[4] = dose: 200.0 mg/kg/injection, schedule: Q01DX009 (ip), vehicle: Klucel (hydroxypropylcellulose) (HPC)
[5] = dose: 50.0 mg/kg/injection, schedule: Q01DX009 (ip), vehicle: saline
[6] = dose: 100.0 mg/kg/injection, schedule: Q01DX009 (ip), vehicle: saline
[7] = dose: 100.0 mg/kg/injection, schedule: Q04DX003 (ip), vehicle: saline
[8] = dose: 200.0 mg/kg/injection, schedule: Q04DX003 (ip), vehicle: saline
[9] = dose: 100.0 mg/kg/injection, schedule: Q01DX001 (ip), vehicle: carboxymethylcellulose (CMC)
[10] = dose: 100.0 mg/kg/injection, schedule: Q01DX001 (ip), vehicle: saline
[11] = dose: 200.0 mg/kg/injection, schedule: Q01DX001 (ip), vehicle: saline
[12] = dose: 400.0 mg/kg/injection, schedule: Q01DX001 (ip), vehicle: saline
[13] = dose: 100.0 mg/kg/injection, schedule: Q04DX002 (ip), vehicle: saline with Tween-80

Measured: T/C

CC(=O)OC1C(=O)C(O)C(C)OC1O[C@@H]1C[C@@]2(C)[C@@H]3CC=C4[C@@H](C[C@H](O)C(=O)C4(C)C)[C@]3(C)C(=O)C[C@]2(C)[C@H]1[C@@](C)(O)C(=O)/C=C/C(C)(C)O (some centres undefined)
inactive: dose: 0.33 mg/kg/injection, schedule: Q01DX009 (ip), vehicle: saline 113 % of control | dose: 0.6 mg/kg/injection, schedule: Q01DX009 (ip), vehicle: saline 106 % of control | dose: 0.67 mg/kg/injection, schedule: Q01DX009 (ip), vehicle: saline 112 % of control | dose: 1.0 mg/kg/injection, schedule: Q01DX009 (ip), vehicle: saline 108 % of control | dose: 1.25 mg/kg/injection, schedule: Q01DX009 (ip), vehicle: saline 120 % of control | dose: 1.5 mg/kg/injection, schedule: Q01DX009 (ip), vehicle: saline 101 % of control | dose: 2.5 mg/kg/injection, schedule: Q01DX009 (ip), vehicle: saline 97 % of control

Oc1c(I)cc(I)c2cccnc12
inactive: [1] 102 % of control | [2] 106 % of control

CC1C(=O)CCCC1=O
inactive: [3] 101 % of control | [4] 101 % of control | dose: 400.0 mg/kg/injection, schedule: Q01DX009 (ip), vehicle: Klucel (hydroxypropylcellulose) (HPC) 95 % of control

CCNC1(c2ccc(Cl)cc2)CCCCC1=O (centres undefined)
inactive: [5] 105 % of control | [6] 102 % of control | [7] 104 % of control | [8] 106 % of control

CSc1ccccc1/C=C(/C(=O)O)c1ccccc1O
inactive: dose: 100.0 mg/kg/injection, schedule: Q01DX001 (ip), vehicle: saline with Tween-80 103 % of control | dose: 200.0 mg/kg/injection, schedule: Q01DX001 (ip), vehicle: saline with Tween-80 97 % of control | dose: 400.0 mg/kg/injection, schedule: Q01DX001 (ip), vehicle: saline with Tween-80 103 % of control

CC(C)N=Cc1ccccc1O.CC(C)N=Cc1ccccc1O.[Ni]
inactive: dose: 6.25 mg/kg/injection, schedule: Q04DX003 (ip), vehicle: saline sonified 92 % of control | dose: 12.5 mg/kg/injection, schedule: Q04DX003 (ip), vehicle: saline sonified 101 % of control | dose: 25.0 mg/kg/injection, schedule: Q04DX003 (ip), vehicle: saline sonified 108 % of control | [7] 86 % of control

NC(=S)N/N=C\c1csc2ccccc12
inactive: [9] 92 % of control | [10] 96 % of control | dose: 200.0 mg/kg/injection, schedule: Q01DX001 (ip), vehicle: carboxymethylcellulose (CMC) 92 % of control | [11] 107 % of control | dose: 400.0 mg/kg/injection, schedule: Q01DX001 (ip), vehicle: carboxymethylcellulose (CMC) 95 % of control | [12] 94 % of control

O=S(=O)(/C=C\c1ccccc1)c1ccccc1
inactive: [5] 102 % of control | dose: 100.0 mg/kg/injection, schedule: Q01DX001 (ip), vehicle: acetone 97 % of control | [6] 97 % of control | dose: 100.0 mg/kg/injection, schedule: Q04DX003 (ip), vehicle: acetone 105 % of control | dose: 200.0 mg/kg/injection, schedule: Q01DX001 (ip), vehicle: acetone 106 % of control | dose: 200.0 mg/kg/injection, schedule: Q01DX009 (ip), vehicle: saline 91 % of control | dose: 200.0 mg/kg/injection, schedule: Q04DX003 (ip), vehicle: acetone 94 % of control | dose: 400.0 mg/kg/injection, schedule: Q01DX001 (ip), vehicle: acetone 97 % of control

N#[N+]c1ccc(Br)cc1-c1nc(N)c2cc(Br)ccc2n1
inactive: dose: 50.0 mg/kg/injection, schedule: Q01DX001 (ip), vehicle: Klucel (hydroxypropylcellulose) (HPC) 94 % of control | [1] 105 % of control | [2] 105 % of control

C=COC(=O)NC(C(=O)O)C(C)C (centres undefined)
inactive: [10] 96 % of control

CC1=CC(=O)c2[nH]ncc2C1=O
inactive: dose: 10.0 mg/kg/injection, schedule: Q01DX001 (ip), vehicle: water 93 % of control

CCC[CH2][Pb]([CH2]CCC)([CH2]CCC)[CH2]CCC
inactive: [13] 107 % of control | dose: 200.0 mg/kg/injection, schedule: Q04DX002 (ip), vehicle: saline with Tween-80 105 % of control | dose: 400.0 mg/kg/injection, schedule: Q04DX002 (ip), vehicle: saline with Tween-80 102 % of control

CN(C)CCCCN(C)CCCN(C)C
inactive: [10] 114 % of control | [11] 102 % of control | [12] 98 % of control

CC(C)(C)c1ccc(OCC(=O)O)c(Cl)c1
inactive: dose: 100.0 mg/kg/injection, schedule: Q01DX009 (ip), vehicle: saline with Tween-80 91 % of control | dose: 200.0 mg/kg/injection, schedule: Q01DX009 (ip), vehicle: saline with Tween-80 101 % of control

O=[N+]([O-])c1ccccc1N=Nc1c(O)[nH]c2c(Cl)ccc(Cl)c12
inactive: dose: 75.0 mg/kg/injection, schedule: Q01DX001 (ip), vehicle: saline 89 % of control | dose: 150.0 mg/kg/injection, schedule: Q01DX001 (ip), vehicle: saline 93 % of control

Cc1ccc(N=Cc2ccc([N+](=O)[O-])s2)cc1Cl
inactive: dose: 100.0 mg/kg/injection, schedule: Q04DX003 (ip), vehicle: Klucel (hydroxypropylcellulose) (HPC) 91 % of control | dose: 200.0 mg/kg/injection, schedule: Q04DX003 (ip), vehicle: Klucel (hydroxypropylcellulose) (HPC) 89 % of control

C[n+]1ccccc1/C=C/c1csc2ccccc12
inactive: dose: 5.0 mg/kg/injection, schedule: Q01DX001 (ip), vehicle: carboxymethylcellulose (CMC) 100 % of control | dose: 10.0 mg/kg/injection, schedule: Q01DX001 (ip), vehicle: carboxymethylcellulose (CMC) 102 % of control | dose: 20.0 mg/kg/injection, schedule: Q01DX001 (ip), vehicle: carboxymethylcellulose (CMC) 100 % of control | dose: 40.0 mg/kg/injection, schedule: Q01DX001 (ip), vehicle: carboxymethylcellulose (CMC) 100 % of control | dose: 80.0 mg/kg/injection, schedule: Q01DX001 (ip), vehicle: carboxymethylcellulose (CMC) 107 % of control

O=C1CCC(N2C(=O)C3C4C=CC(C4)C3C2=O)C(=O)N1 (centres undefined)
inactive: [7] 101 % of control | [8] 101 % of control | dose: 400.0 mg/kg/injection, schedule: Q04DX003 (ip), vehicle: saline 97 % of control

CS/C(N)=N\[N+](=O)[O-]
inactive: dose: 50.0 mg/kg/injection, schedule: Q01DX009 (ip), vehicle: Klucel (hydroxypropylcellulose) (HPC) 89 % of control | [3] 110 % of control | [4] 114 % of control

CN(C)c1ccc(C(Nc2ccccc2)C(Nc2ccccc2)c2ccc(N(C)C)cc2)cc1 (centres undefined)
inactive: dose: 100.0 mg/kg/injection, schedule: Q01DX001 (ip), vehicle: other 102 % of control | dose: 200.0 mg/kg/injection, schedule: Q01DX001 (ip), vehicle: other 87 % of control | dose: 400.0 mg/kg/injection, schedule: Q01DX001 (ip), vehicle: other 89 % of control

COc1ccc(CCN(C)C(C)C2C3CC4CC(C3)CC2C4)cc1OC (centres undefined)
inactive: [7] 101 % of control | [8] 94 % of control

CCCCCc1cc2c3c(c(=O)oc2cc1O)CCCCC3
inactive: dose: 100.0 mg/kg/injection, schedule: Q04DX003 (ip), vehicle: gum acacia 90 % of control | dose: 200.0 mg/kg/injection, schedule: Q04DX003 (ip), vehicle: gum acacia 88 % of control | dose: 400.0 mg/kg/injection, schedule: Q04DX003 (ip), vehicle: gum acacia 96 % of control

COc1cc(C(=O)O)cc(OC)n1
inactive: dose: 100.0 mg/kg/injection, schedule: Q04DX003 (ip), vehicle: saline with Tween-80 102 % of control | dose: 200.0 mg/kg/injection, schedule: Q04DX003 (ip), vehicle: saline with Tween-80 96 % of control | dose: 400.0 mg/kg/injection, schedule: Q04DX003 (ip), vehicle: saline with Tween-80 96 % of control

CCCCCCCCCC(=O)N1CCC(C)CC1
inactive: dose: 100.0 mg/kg/injection, schedule: Q04DX002 (ip), vehicle: saline 111 % of control | dose: 200.0 mg/kg/injection, schedule: Q04DX002 (ip), vehicle: saline 104 % of control | dose: 400.0 mg/kg/injection, schedule: Q04DX002 (ip), vehicle: saline 101 % of control

C=CCNC(=O)c1ccccc1
inactive: dose: 25.0 mg/kg/injection, schedule: Q04DX002 (ip), vehicle: saline with Tween-80 97 % of control | dose: 50.0 mg/kg/injection, schedule: Q04DX002 (ip), vehicle: saline with Tween-80 93 % of control | [13] 111 % of control and 91 % of control

O=C1N(Cl)C2C(N1Cl)N(Cl)C(=O)N2Cl (centres undefined)
inactive: dose: 50.0 mg/kg/injection, schedule: Q01DX001 (ip), vehicle: carboxymethylcellulose (CMC) 97 % of control | [9] 97 % of control
